The source of these data is patent US20100292306A1, “Compositions And Methods For The Treatment Of Muscular Dystrophy” (priority 2005, published 2010).

Entries after “also recorded” stand apart in the source; their conditions may differ.

One data set has as its system mdx gastrocnemius muscle. In words: Gastrocnemius twitch tension at optimal length.
Data set [1] can be described thus: Observation of viability, side effects and body weight during treatment. The conditions noted are these: overall sample of PDTC-treated mice.
The subject of data set [2] is mdx triangularis sterni (TS) muscle. In words: Histological cross sections of mdx TS muscle (fiber number, diameter, density, myonuclei, centronucleation). The class given is in vivo, mdx mice. The conditions noted are these: 50 mg/kg daily 30 days from 30 days of age, read at 60 days; p<0.001.
For another data set, the system named is cytosolic IκB-α. In words: Western blot of cytosolic IκB-α in mdx diaphragm after a single PDTC dose. Format: in vivo, mdx mice. As for the experimental part: Cytosolic levels of IκB-α may be determined using Western blot techniques. Cytosolic and nuclear fractions may be obtained from isolated diaphragm muscles using the techniques described in Kumar and Boriek, 2003. Briefly, the muscles may be weighed after removing tendinous components, and frozen and homogenized by mortar and pestle in lysis buffer on ice (1 mg muscle/18 μl lysis buffer containing 10 mM HEPES, 10 mM KCl, 1.5 mM MgCl2, 0.1 mM EDTA, 0.1 mM EGTA, 1 mM dithiothreitol, 0.5 mM phenylmethylsulfonylfluoride, 2.0 μg/ml leupeptin, 2.0 μg/ml aprotinin, 0.5 mg/ml benzamidine, at pH 7.9). To lyse the cells, the ground tissue may be subjected to two freeze-thaw cycles and subsequently vortexed and centrifuged (13,000 rpm, 10 s). […]
Equal amounts of proteins (based on Lowry Assay) from treated vs. untreated cytosolic fractions may be boiled in SDS-PAGE sample buffer for 5 min, applied to 10% SDS-PAGE gel, and blotted onto PVDF (polyvinyl difluoride) membrane. […] After additional washing steps, the antibody complex may be detected by chemiluminescence using the ECL detection reagent (Amersham) and densitometric measurements may also be obtained. […]

Data set [3] relates to mdx triangularis sterni (TS) muscle. Kind of data set: Histological cross sections of mdx TS muscle (fiber number, diameter, density, myonuclei, centronucleation). The class given is in vivo, mdx mice. An excerpt: To further examine the morphological effects of chronic treatment with inhibitors of the NFκB pathway, the fixed TS preparations used in these investigations on mature mdx mice (Series 2 through 4) were sectioned and stained with hematoxylin and eosin using standard histological procedures (FIG. 7A, 7B, 7C). […] PDTC treatment produced a significant (p<0.001) reduction in diameter in the caudal region and a significant (p<0.001) increase in diameter in the middle region in comparison to corresponding values from the vehicle-injected mdx mice (FIG. 9).
To determine the density of muscle fibers in the mdx TS muscle, individual sections representing all of the fibers within each TS muscle were evaluated by determining the average number of fiber cross sections per unit length of the TS muscle where the length is defined along the axis orthogonal to the principal fiber axis. This procedure was performed for all of the available TS muscles initially used in the Series 2 and 3 PDTC investigations.
Determination of the total number of myonuclei across all regions of the mature nondystrophic, mdx-vehicle, and mdx-PDTC treated TS muscles in conjunction with determination of the total number of fiber cross sections in the same preparations provided an immediate measure of the number of myonuclei per sectioned fiber (FIG. 12).
These morphological results provide direct evidence that inhibitors of the NFκB pathway may have beneficial effects in treating both young and mature dystrophic preparations.

The mark [4] stands for this setting: Series 2 and 3, vs age-matched vehicle.
[5] abbreviates: mature mdx, vs vehicle-injected, p<0.001.

On to `S=C(S)N1CCCC1` [PDTC, pyrrolidine dithiocarbamate], for which, in the data set on mdx gastrocnemius muscle (mature mdx (about 15 months), 50 mg/kg daily, average 72 days), the “improvement in average twitch tension relative to vehicle-injected” value was determined as 52%. Besides, the “twitch tension development” value in the data set with mdx gastrocnemius muscle (mature mdx mice, average age 15 months at sacrifice) is “improves”. Also, in the data set with mdx gastrocnemius muscle (mature mdx, just failed to reach statistical significance (p>=0.05)), the “improvement in twitch tension/gm relative to vehicle-injected” value was 45%. For the same compound, in the data set with mdx gastrocnemius muscle (young adult (2 month old) mdx), the “increase in twitch tension vs vehicle-treated” value is 13% and the “increase in twitch tension/mg muscle weight vs vehicle-treated” value is recorded as 11%. Further, the “twitch tension development” value in the data set on mdx gastrocnemius muscle (young adult mdx mice) is given as “improves”. Also, in data set [1], the effect on viability entry is reported as “no obvious effect”. Also, in data set [2], the “percent centronucleation” value is given as “reduced; also recorded: significantly reduces”. Further, the “period of increased cytosolic IκB-α levels” value with cytosolic IκB-α (single dose 50 mg/kg ip, adult mdx skeletal muscle) was “at least 5 h”. The “ambient levels of cytosolic IκB-α” value in the data set with cytosolic IκB-α (single ip dose 50 mg/kg, diaphragm 3 and 5 h after injection, vs vehicle littermates, 50 mg/kg) is on record as “substantially increased; also recorded: increases”. Further, in data set [3] (setting [4]), the “fiber number, caudal region” value is “substantial increases”; the “fiber number, cephalad region” value is “an increase”; the “fiber number, middle region” value was “no change”. Further, the “number of fibers per unit length” value in data set [3] (Series 2 and 3, cephalad and caudal regions, p<0.05) was “increased”. Further, in data set [3] (Series 2 and 3 mature mdx, vs age matched vehicle, p<0.001), the “number of myonuclei per fiber” value is “increase”. In data set [3] (chronic PDTC, mature mdx), the “fiber number or density, middle region” value is “without altering”. Besides, the “density of fibers / loss of muscle fibers” value in data set [3] (individual mdx mouse, 50 mg/kg on 238 of 258 days from 5 to 13.5 months, vs 14.6 month vehicle treated, 50 mg/kg) was “substantial improvements; also recorded: decreases the loss”. Besides, the “percent centronucleation” value in data set [3] (mature mdx mice, Series 2 and 3, p<0.001) is “reduced; also recorded: significantly decreased”. Further, in data set [3] (setting [5]), the “fiber diameter, caudal region” value was “reduction” and the “fiber diameter, middle region” value is “increase”.
